Laboratory results published in patent US20230092890A1, “1, 3, 4-Oxadiazole derivative compounds as histone deacetylase 6 inhibitor, and the pharmaceutical composition comprising the same” (Chong Kun Dang Pharmaceutical Corp., priority 2019, published 2023).

What was measured:
[1] = molecular target: T1, HDAC6 human recombinant (Homo sapiens, UniProt Q9UBN7); experiment: HDAC enzyme activity inhibition (in vitro), HDAC6 assay; type: biochemical; details: samples at 0.1, 1, 10, 100 and 1000 nM; 37° C. 60 minutes; fluorescence Ex 390, Em 460; read-out: HDAC6 IC50
T1 construct: purchased Calbiochem 382180
T1 sequence (Q9UBN7 1-1215): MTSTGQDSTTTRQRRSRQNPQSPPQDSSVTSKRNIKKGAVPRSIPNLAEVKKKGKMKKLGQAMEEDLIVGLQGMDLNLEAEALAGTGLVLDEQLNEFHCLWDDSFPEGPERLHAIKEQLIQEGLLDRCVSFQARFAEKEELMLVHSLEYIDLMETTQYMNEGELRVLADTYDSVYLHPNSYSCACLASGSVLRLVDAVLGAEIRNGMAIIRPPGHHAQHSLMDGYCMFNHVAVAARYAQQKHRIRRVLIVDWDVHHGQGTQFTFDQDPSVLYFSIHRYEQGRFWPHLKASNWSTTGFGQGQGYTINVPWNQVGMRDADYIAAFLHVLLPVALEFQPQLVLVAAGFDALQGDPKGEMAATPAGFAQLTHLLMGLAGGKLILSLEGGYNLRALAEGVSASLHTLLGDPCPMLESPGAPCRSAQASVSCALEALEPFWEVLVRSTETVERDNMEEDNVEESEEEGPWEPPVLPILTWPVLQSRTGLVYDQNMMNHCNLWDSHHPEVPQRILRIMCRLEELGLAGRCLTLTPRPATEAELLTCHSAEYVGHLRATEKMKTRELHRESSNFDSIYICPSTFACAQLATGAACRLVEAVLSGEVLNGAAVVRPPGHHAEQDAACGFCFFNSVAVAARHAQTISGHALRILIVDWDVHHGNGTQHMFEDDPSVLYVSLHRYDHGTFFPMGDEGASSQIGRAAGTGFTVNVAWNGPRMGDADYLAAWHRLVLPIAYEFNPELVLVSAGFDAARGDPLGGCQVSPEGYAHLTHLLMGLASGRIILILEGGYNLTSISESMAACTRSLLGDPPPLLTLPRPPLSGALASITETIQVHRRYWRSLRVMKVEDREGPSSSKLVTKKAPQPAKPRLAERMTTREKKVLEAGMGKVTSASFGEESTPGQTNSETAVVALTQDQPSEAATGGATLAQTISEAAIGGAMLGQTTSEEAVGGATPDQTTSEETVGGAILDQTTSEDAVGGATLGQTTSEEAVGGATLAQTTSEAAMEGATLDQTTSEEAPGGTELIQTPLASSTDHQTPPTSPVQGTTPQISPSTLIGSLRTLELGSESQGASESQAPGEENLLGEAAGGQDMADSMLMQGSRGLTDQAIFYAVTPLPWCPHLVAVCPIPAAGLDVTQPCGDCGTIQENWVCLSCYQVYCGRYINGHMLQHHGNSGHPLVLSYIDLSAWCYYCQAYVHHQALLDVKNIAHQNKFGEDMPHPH
Description: A HDAC enzyme inhibitory capacity of a test material was measured by using HDAC1 Fluorimetric Drug Discovery Assay Kit (Enzolifesciences: BML-AK511) and HDAC6 human recombinant (Calbiochem: 382180). For a HDAC1 assay, samples were treated at a concentration of 100, 1000 and 10000 nM. […] After the above sample treatment, a reaction was continued at 37° C. for 60 minutes, then treated with a developer, and then subjected to a reaction at 37° C. for 30 minutes, after which fluorescence intensity (Ex 390, Em 460) was measured by using FlexStatin3 (Molecular device).

[2] = molecular target: T2, HDAC1 (Homo sapiens, UniProt Q13547); experiment: HDAC enzyme activity inhibition (in vitro), HDAC1 Fluorimetric Drug Discovery Assay Kit; type: biochemical; details: samples at 100, 1000 and 10000 nM; 37° C. 60 minutes; fluorescence Ex 390, Em 460; read-out: HDAC1 IC50
T2 construct: purchased Enzolifesciences BML-AK511
T2 sequence (Q13547 whole entry): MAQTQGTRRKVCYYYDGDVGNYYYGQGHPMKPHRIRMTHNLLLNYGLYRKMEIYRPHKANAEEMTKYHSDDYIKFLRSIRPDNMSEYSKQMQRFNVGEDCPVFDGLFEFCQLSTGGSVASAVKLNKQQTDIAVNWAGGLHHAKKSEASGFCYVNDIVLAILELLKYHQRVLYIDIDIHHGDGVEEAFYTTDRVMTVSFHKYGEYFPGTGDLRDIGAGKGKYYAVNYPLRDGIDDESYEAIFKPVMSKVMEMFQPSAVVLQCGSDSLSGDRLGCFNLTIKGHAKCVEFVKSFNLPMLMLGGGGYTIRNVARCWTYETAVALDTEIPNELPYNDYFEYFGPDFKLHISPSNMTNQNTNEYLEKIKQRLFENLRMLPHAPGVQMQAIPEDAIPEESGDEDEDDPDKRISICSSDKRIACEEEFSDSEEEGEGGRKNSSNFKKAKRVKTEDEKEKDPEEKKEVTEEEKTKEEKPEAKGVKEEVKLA
Description: <Experimental Example 1> Identification of HDAC Enzyme Activity Inhibition (In Vitro)
A selective HDAC6 inhibitor is important for selectivity of HDAC1 inhibition, which is a cause of side effects, and thus HDAC1/6 enzyme selectivity and cell selectivity (HDAC1: histone acetylation/HDAC6: tubulin acetylation) were identified.
A HDAC enzyme inhibitory capacity of a test material was measured by using HDAC1 Fluorimetric Drug Discovery Assay Kit (Enzolifesciences: BML-AK511) and HDAC6 human recombinant (Calbiochem: 382180). For a HDAC1 assay, samples were treated at a concentration of 100, 1000 and 10000 nM. For a HDAC6 assay, samples were treated at a concentration of 0.1, 1, 10, 100 and 1000 nM. After the above sample treatment, a reaction was continued at 37° C. for 60 minutes, then treated with a developer, and then subjected to a reaction at 37° C. for 30 minutes, after which fluorescence intensity (Ex 390, Em 460) was measured by using FlexStatin3 (Molecular device).

Row | IC50 [1] [nM] | IC50 [2] [µM] | Compound
1 | 39 | > 10 | CCN1CCC(n2c(=O)n(Cc3ccc(-c4nnc(C(F)F)o4)cn3)c3cc(F)ccc32)CC1 [Compound 50, 3-((5-(5-(difluoromethyl)-1,3,4-oxadiazole-2-yl)pyridine-2-yl)methyl)-1-(1-ethylpiperidine-4-yl)-5-fluoro-1,3-dihydro-2H-benzo[d]imidazole-2-one]
2 | 203 | > 10 | CN1CCC(n2c(=O)n(Cc3ccc(-c4nnc(C(F)F)o4)cn3)c3ccccc32)C1 (stereo not drawn) [Compound 6, 1-((5-(5-(difluoromethyl)-1,3,4-oxadiazole-2-yl)pyridine-2-yl)methyl)-3-(1-methylpyrrolidine-3-yl)-1,3-dihydro-2H-benzo[d]imidazole-2-one]
3 | 342 | > 10 | CN1CCC(n2c(=O)n(Cc3ccc(-c4nnc(C(F)F)o4)cc3F)c3ncccc32)CC1 [Compound 103, 3-(4-(5-(difluoromethyl)-1,3,4-oxadiazole-2-yl)-2-fluorobenzyl)-1-(1-methylpiperidine-4-yl)-1,3-dihydro-2H-imidazo[4,5-b]pyridine-2-one]
4 | 798 | > 10 | CN1CCC(n2c(=O)n(Cc3ccc(-c4nnc(C(F)F)o4)cc3)c3cc(-c4cc(F)ccc4F)ccc32)CC1 [Compound 128]
5 | 34 | > 10 | COCC(C)N1CCC(n2c(=O)n(Cc3ccc(-c4nnc(C(F)F)o4)cn3)c3cc(F)ccc32)CC1 (stereo not drawn) [Compound 56, 3-((5-(5-(difluoromethyl)-1,3,4-oxadiazole-2-yl)pyridine-2-yl)methyl)-5-fluoro-1-(1-(1-methoxypropane-2-yl)piperidine-4-yl)-1,3-dihydro-2H-benzo[d]imidazole-2-one]
6 | 640 | > 10 | CN1CCC(n2c(=O)n(Cc3ccc(-c4nnc(C(F)F)o4)cc3)c3ncccc32)CC1 [Compound 105, 3-(4-(5-(difluoromethyl)-1,3,4-oxadiazole-2-yl)benzyl)-1-(1-methylpiperidine-4-yl)-1,3-dihydro-2H-imidazo[4,5-b]pyridine-2-one]
7 | 175 | > 10 | CN1CCC(c2ccc3c(c2)n(C2CCN(C)CC2)c(=O)n3Cc2ccc(-c3nnc(C(F)F)o3)cn2)CC1 [Compound 199, 1-((5-(5-(difluoromethyl)-1,3,4-oxadiazole-2-yl)pyridine-2-yl)methyl)-3,5-bis(1-methylpiperidine-4-yl)-1,3-dihydro-2H-benzo[d]imidazole-2-one]
8 | 241 | > 10 | O=c1n(Cc2ccc(-c3nnc(C(F)F)o3)cc2F)c2ccccc2n1C1CN(C2COC2)C1 [Compound 23, 1-(4-(5-(difluoromethyl)-1,3,4-oxadiazole-2-yl)-2-fluorobenzyl)-3-(1-(oxetan-3-yl)azetidine-3-yl)-1,3-dihydro-2H-benzo[d]imidazole-2-one]
9 | 130 | > 10 | Cc1ccc(-c2ccc3c(c2)n(Cc2ccc(-c4nnc(C(F)F)o4)cn2)c(=O)n3C2CCN(C)CC2)o1 [Compound 146, 3-((5-(5-(difluoromethyl)-1,3,4-oxadiazole-2-yl)pyridine-2-yl)methyl)-5-(5-methylfuran-2-yl)-1-(1-methylpiperidine-4-yl)-1,3-dihydro-2H-benzo[d]imidazole-2-one]

The remaining lines, values behind:

Row | Compound | IC50 [1] [nM] | IC50 [2] [µM]
10 | O=c1sc2cc(-c3cccnc3)ccc2n1Cc1ccc(-c2nnc(C(F)F)o2)cn1 [Compound 231, 3-((5-(5-(difluoromethyl)-1,3,4-oxadiazole-2-yl)pyridine-2-yl)methyl)-6-(pyridine-3-yl) benzo[d]thiazole-2(3H)-one] | 9 | > 10
11 | O=c1oc2cc(-c3ccncc3)c(F)cc2n1Cc1ccc(-c2nnc(C(F)F)o2)cn1 [Compound 278, 3-((5-(5-(difluoromethyl)-1,3,4-oxadiazole-2-yl)pyridine-2-yl)methyl)-5-fluoro-6-(pyridine-4-yl)benzo[d]oxazole-2(3H)-one] | 17 | > 10
12 | O=c1n(Cc2ccc(-c3nnc(C(F)F)o3)cn2)c2cc(F)c(-c3ccncc3)cc2n1[C@@H]1CCN(C2COC2)C1 [Compound 287, (R)-1-((5-(5-(difluoromethyl)-1,3,4-oxadiazole-2-yl)pyridine-2-yl)methyl)-6-fluoro-3-(1-(oxetan-3-yl)pyrrolidine-3-yl)-5-(pyridine-4-yl)-1,3-dihydro-2H-benzo[d]imidazole-2-one] | 14 | > 10
13 | CC(=O)N1CCC(c2ccc3c(c2)n(C2CCN(C)CC2)c(=O)n3Cc2ccc(-c3nnc(C(F)F)o3)cn2)CC1 [Compound 197, 5-(1-acetylpiperidine-4-yl)-1-((5-(5-(difluoromethyl)-1,3,4-oxadiazole-2-yl)pyridine-2-yl)methyl)-3-(1-methylpiperidine-4-yl)-1,3-dihydro-2H-benzo[d]imidazole-2-one] | 235 | > 10
14 | CN1CC[C@@H](n2c(=O)n(Cc3ccc(-c4nnc(C(F)F)o4)cn3)c3cc(F)c(-c4ccncc4)cc32)C1 [Compound 272, (R)-1-((5-(5-(difluoromethyl)-1,3,4-oxadiazole-2-yl)pyridine-2-yl)methyl)-6-fluoro-3-(1-methylpyrrolidine-3-yl)-5-(pyridine-4-yl)-1,3-dihydro-2H-benzo[d]imidazole-2-one] | 29 | > 10
15 | O=c1n(Cc2ccc(-c3nnc(C(F)F)o3)cn2)c2cc(F)c(-c3cn[nH]c3)cc2n1CC1CCN(C2COC2)CC1 [Compound 292, 1-((5-(5-(difluoromethyl)-1,3,4-oxadiazole-2-yl)pyridine-2-yl)methyl)-6-fluoro-3-((1-(oxetan-3-yl)piperidine-4-yl)methyl)-5-(1H-pyrazole-4-yl)-1,3-dihydro-2H-benzo[d]imidazole-2-one] | 3 | > 10
16 | O=c1oc2cc(-c3cncc(N4CCOCC4)c3)c(F)cc2n1Cc1ccc(-c2nnc(C(F)F)o2)cn1 [Compound 348, 3-((5-(5-(difluoromethyl)-1,3,4-oxadiazole-2-yl)pyridine-2-yl)methyl)-5-fluoro-6-(5-morpholinopyridine-3-yl)benzo[d]oxazole-2(3H)-one] | 25 | > 10
17 | O=c1n(Cc2ccc(-c3nnc(C(F)(F)F)o3)cn2)c2ccccc2n1C1CC2(COC2)C1 [Compound 109, 1-(2-oxaspiro[3.3]heptane-6-yl)-3-((5-(5-(trifluoromethyl)-1,3,4-oxadiazole-2-yl)pyridine-2-yl)methyl)-1,3-dihydro-2H-benzo[d]imidazole-2-one] | 623 | > 10
18 | O=c1oc2cc(-c3ccnc(N4CCN(C5CCC5)CC4)c3)c(F)cc2n1Cc1ccc(-c2nnc(C(F)F)o2)cn1 [Compound 367, 6-(2-(4-cyclobutylpiperazine-1-yl)pyridine-4-yl)-3-((5-(5-(difluoromethyl)-1,3,4-oxadiazole-2-yl)pyridine-2-yl)methyl)-5-fluorobenzo[d]oxazole-2(3H)-one] | 312 | > 10
